Activity calls are given as the source filed them. The calls are words filed in the database; no cut-off is given here.

Test [1] in a line: Cytotoxicity against human T29 cells expressing wild type B-Raf assessed as cell viability after 72 hrs by MTT assay. Format: functional, cell-based. The following applies: T29, 72 h. For orientation: Tetrazolium assays rely on reduction of a dye to a coloured formazan, in cell work by metabolically active cells.
A short description of test [2]: Cytotoxicity against human F-6-8 cells expressing B-Raf V600E mutant assessed as cell viability after 72 hrs by MTT assay. Format: functional, cell-based.
Test [3] in a line: Cell cycle arrest in human T29 cells assessed as decrease in cell level at S phase at 5 to 10 uM after 48 to 72 hrs by propidium iodide staining-based flow cytometric analysis. It is filed as functional.
Test [4] concerns T29. Kind of test: Cytotoxicity against human T29 cells assessed as cell detachment from culture dish at 10 uM after 24 hrs by inverted microscopic analysis. Format: functional, cell-based.
Test [5] concerns T29. The experiment in a line: Cytotoxicity against human T29 cells assessed as increase in nuclear fragmentation at 10 uM after 24 hrs by inverted microscopic analysis. Format: functional, cell-based.
The nature of test [6]: Cell cycle arrest in human T29 cells assessed as decrease in cell level at G2/M phase at 5 to 10 uM after 48 to 72 hrs by propidium iodide staining-based flow cytometric analysis. It is filed as functional. In general terms: Flow cytometry measures light scatter and fluorescence of single cells or particles in a stream.
Test [7] is described as follows: Cell cycle arrest in human T29 cells assessed as increase in cell level at pre-G1 phase at 10 uM after 48 hrs by propidium iodide staining-based flow cytometric analysis. It is filed as functional.
In test [8] the target is Epidermal growth factor receptor (Homo sapiens) (UniProt P00533). The experiment in a line: Inhibition of EGFR in human T29 cells assessed as suppression of Src phosphorylation at Tyr416 after 24 hrs by Western blot analysis. It is filed as cell-based. For orientation: Immunoblotting shows a protein as a band on a membrane.
Test [9] deals with T29. Kind of test: Induction of apoptosis in human T29 cells assessed as PARP cleavage at 10 uM after 24 hrs by Western blot analysis. Format: functional, cell-based.
The target of test [10] is Epidermal growth factor receptor (Homo sapiens) (UniProt P00533). The experiment in a line: Inhibition of EGFR autophosphorylation at Tyr1068 in human T29 cells after 24 hrs by Western blot analysis. Format: cell-based.
A short description of test [11]: Cell cycle arrest in human T29 cells assessed as increase in cell level at pre-G1 phase at 5 uM after 48 hrs by propidium iodide staining-based flow cytometric analysis. It is filed as functional.
For test [12], the system named is T29. The experiment in a line: Cytotoxicity against human T29 cells assessed as increase in membrane blebbing at 10 uM after 24 hrs by inverted microscopic analysis. Format: functional, cell-based.
A short description of test [13]: Selectivity ratio of IC50 for human F-6-8 cells expressing B-Raf V600E mutant to IC50 for human T29 cells expressing wild type B-Raf. It is filed as functional.
Test [14] in a line: Cell cycle arrest in human T29 cells assessed as increase in cell level at pre-G1 phase at 10 uM after 72 hrs by propidium iodide staining-based flow cytometric analysis. Format: functional.
Test [15] deals with Epidermal growth factor receptor (Homo sapiens) (UniProt P00533). Kind of test: Inhibition of EGFR in human T29 cells assessed as suppression of ERK phosphorylation at Tyr204 after 24 hrs by Western blot analysis. It is filed as cell-based.
Test [16] has the same target. The experiment in a line: Inhibition EGFR in human T29 cells assessed as suppression of STAT3 phosphorylation at Tyr705 after 24 hrs by Western blot analysis. It is filed as cell-based.
In test [17] the target is Serine/threonine-protein kinase B-raf (Homo sapiens) (UniProt P15056). Kind of test: Inhibition of recombinant B-Raf (unknown origin) expressed in HEK293 cells using MEK1 peptide as substrate at 20 uM after 15 mins by radiometric assay in presence of [gamma-32P]ATP.
The target in test [18] is Epidermal growth factor receptor (Homo sapiens) (UniProt P00533). The experiment in a line: Inhibition of EGFR in human T29 cells assessed as suppression of MEK phosphorylation at Ser217/Ser221 after 24 hrs by Western blot analysis. It is filed as cell-based.
A short description of test [19]: Cell cycle arrest in human T29 cells assessed as decrease in cell level at G0/G1 phase at 5 to 10 uM after 48 to 72 hrs by propidium iodide staining-based flow cytometric analysis. It is filed as functional.
The target of test [20] is Epidermal growth factor receptor (Homo sapiens) (UniProt P00533). The experiment in a line: Inhibition of EGFR in human T29 cells assessed as suppression of AKT phosphorylation at mTORC2 site, Ser473 after 24 hrs by Western blot analysis. It is filed as cell-based.
Test [21] deals with Serine/threonine-protein kinase B-raf (Homo sapiens) (UniProt P15056). Kind of test: Competitive inhibition of recombinant B-Raf (unknown origin) expressed in HEK293 cells up to 100 uM after 60 to 120 mins by FRET analysis in presence of ATP. Format: cell-based.
The target of test [22] is Epidermal growth factor receptor (Homo sapiens) (UniProt P00533). Kind of test: Inhibition of EGFR in human T29 cells assessed as suppression of C-Raf phosphorylation at p-21-activated protein kinase site, Ser338 after 24 hrs by Western blot analysis. Format: cell-based.
Test [23] can be described thus: Cell cycle arrest in human T29 cells assessed as increase in cell level at pre-G1 phase at 5 uM after 72 hrs by propidium iodide staining-based flow cytometric analysis. It is filed as functional.
The subject of test [24] is T29. Kind of test: Cytotoxicity against human T29 cells assessed as increase in cell shrinkage at 10 uM after 24 hrs by inverted microscopic analysis. Format: functional, cell-based.

Chain of Epidermal growth factor receptor (Homo sapiens) (P00533 whole entry): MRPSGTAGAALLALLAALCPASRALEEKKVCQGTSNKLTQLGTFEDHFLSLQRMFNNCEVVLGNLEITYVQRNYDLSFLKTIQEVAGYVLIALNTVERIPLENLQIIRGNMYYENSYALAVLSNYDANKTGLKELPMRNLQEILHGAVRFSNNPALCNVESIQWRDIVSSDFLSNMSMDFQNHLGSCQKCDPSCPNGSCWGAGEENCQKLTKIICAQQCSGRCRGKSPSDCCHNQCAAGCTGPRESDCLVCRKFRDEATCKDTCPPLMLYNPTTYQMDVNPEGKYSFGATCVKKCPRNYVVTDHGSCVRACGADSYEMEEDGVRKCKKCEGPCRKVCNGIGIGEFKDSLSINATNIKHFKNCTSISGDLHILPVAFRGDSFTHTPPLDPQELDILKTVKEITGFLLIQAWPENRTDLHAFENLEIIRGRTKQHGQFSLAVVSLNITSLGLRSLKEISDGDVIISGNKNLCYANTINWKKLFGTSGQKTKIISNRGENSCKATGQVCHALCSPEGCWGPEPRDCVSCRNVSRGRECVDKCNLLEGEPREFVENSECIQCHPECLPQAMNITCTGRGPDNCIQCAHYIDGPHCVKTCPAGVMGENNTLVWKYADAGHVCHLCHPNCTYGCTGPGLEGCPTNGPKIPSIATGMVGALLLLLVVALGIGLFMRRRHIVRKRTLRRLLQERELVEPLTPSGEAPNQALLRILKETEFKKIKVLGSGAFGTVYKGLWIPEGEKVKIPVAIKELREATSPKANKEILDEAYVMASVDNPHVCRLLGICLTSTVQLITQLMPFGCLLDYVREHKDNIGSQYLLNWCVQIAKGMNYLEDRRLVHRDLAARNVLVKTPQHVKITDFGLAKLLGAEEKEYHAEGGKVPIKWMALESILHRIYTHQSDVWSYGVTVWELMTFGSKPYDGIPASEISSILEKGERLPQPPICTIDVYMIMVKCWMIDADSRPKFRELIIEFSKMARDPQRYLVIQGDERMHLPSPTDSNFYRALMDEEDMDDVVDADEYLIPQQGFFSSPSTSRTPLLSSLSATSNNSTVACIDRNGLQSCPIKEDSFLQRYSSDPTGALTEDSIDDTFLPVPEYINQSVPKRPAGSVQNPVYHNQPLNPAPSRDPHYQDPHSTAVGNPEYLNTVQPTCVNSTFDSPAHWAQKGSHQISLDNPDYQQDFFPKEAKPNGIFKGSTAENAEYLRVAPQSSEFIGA
Chain of Serine/threonine-protein kinase B-raf (Homo sapiens) (P15056 whole entry): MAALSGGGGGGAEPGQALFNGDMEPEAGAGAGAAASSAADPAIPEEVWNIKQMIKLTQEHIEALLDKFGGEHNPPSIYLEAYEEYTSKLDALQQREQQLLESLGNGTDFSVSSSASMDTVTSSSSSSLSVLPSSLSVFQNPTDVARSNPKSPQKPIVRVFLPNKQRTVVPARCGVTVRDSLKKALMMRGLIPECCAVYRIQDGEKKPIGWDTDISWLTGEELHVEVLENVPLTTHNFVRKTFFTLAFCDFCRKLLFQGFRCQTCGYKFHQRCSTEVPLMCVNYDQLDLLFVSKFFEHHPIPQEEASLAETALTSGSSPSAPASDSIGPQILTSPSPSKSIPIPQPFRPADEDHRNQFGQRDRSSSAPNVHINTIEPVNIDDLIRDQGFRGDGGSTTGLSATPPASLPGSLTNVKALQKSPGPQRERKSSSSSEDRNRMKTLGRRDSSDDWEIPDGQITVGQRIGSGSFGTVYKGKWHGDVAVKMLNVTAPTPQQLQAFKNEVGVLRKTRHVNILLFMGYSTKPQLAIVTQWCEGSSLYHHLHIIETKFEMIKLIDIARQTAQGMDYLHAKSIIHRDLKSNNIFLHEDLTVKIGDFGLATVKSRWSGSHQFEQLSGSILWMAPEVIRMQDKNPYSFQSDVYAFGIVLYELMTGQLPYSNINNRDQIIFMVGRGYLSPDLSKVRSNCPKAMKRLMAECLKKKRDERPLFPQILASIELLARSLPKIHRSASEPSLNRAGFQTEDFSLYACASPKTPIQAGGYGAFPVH

As usually defined, the IC50 is the concentration at which inhibition is half-maximal. For the molecule `N=C(N)Nc1ccc(Oc2cccc(NC(=N)N)c2)cc1`, the half-maximal inhibitory concentration (IC50) came out at 6.5 µM in test [1] and 9.8 µM in test [2].

As for `N=C(N)Nc1ccc(Oc2cccc(NC(=N)Nc3ccc(Cl)c(C(F)(F)F)c3)c2)cc1`, the result (in test [3]; with T29 [4]; in the test on T29 [5]; in [6]; in the test with T29 [9]; in the test on T29 [12]) was Active. Besides, the outcome (in test [19]; in the test on T29 [24]) was Active. Further, the Activity in [7] came out at 20.7%; in test [11], 8.5%; in [14] it was 38.7%; in test [23], 22.5%. The inhibition result in test [8], in test [10], in test [15], in [16], in test [18] and in test [20] was “Dose-dependent effect” throughout. Further, the inhibition entry in test [22] is “Dose-dependent effect”. Also, the IC50 in [1] came to 0.9 µM; in test [2] it was 2.6 µM. In addition, the “Ratio IC50” value in [13] turned out to be 2. Also, the inhibition result in [17] was “Active”. In addition, the inhibition result in test [21] was “inactive”.

Consider `CNC(=O)c1cc(Oc2ccc(NC(=O)Nc3ccc(Cl)c(C(F)(F)F)c3)cc2)ccn1` [SORAFENIB], for which the IC50 came to 0.9 µM in test [1] and 1.3 µM in test [2].

`CC(=O)Nc1cccc(Nc2ccc(NC(=N)Nc3ccc(Cl)c(C(F)(F)F)c3)cc2)c1`: the figures for the IC50 in test [1] and in test [2] were 4.1 µM and 6.6 µM, respectively.

Take `N=C(N)Nc1cccc(Cc2ccc(NC(=N)Nc3ccc(Cl)c(C(F)(F)F)c3)cc2)c1`: the IC50 worked out at 4.5 µM in test [1] and 7.6 µM in test [2].
